These are literature values, as cited in patent US20170106110A1, “ALLERGEN REDUCING COMPOSITION, SPRAY AGENT INCLUDING THE SAME AND SURFACE TREATMENT AGENT INCLUDING THE SAME, ALLERGEN REDUCING METHOD, ALLERGEN REDUCING TEXTILE STRUCTURE AND ALLERGEN REDUCING ARCHITECTURAL INTERIOR MATERIAL” (SC ENVIRONMENTAL SCIENCE CO., LTD., priority 2014, published 2017).

For this data set the following is noted: rat.

For the substance zinc gluconate, the “value of acute oral toxicity” value is “exceeds 5,000 mg/kg”.
